In US11274090B2, “P300/CBP HAT inhibitors” (Constellation Pharmaceuticals, Inc., priority 2018, dated 2022) one finds IC50 data, which are given here for 52 compounds.

For orientation: IC50 means the concentration that inhibits the measured activity by half. Low values mean greater potency in that assay, high ones weaker potency in that assay.

This assay addresses p300 HAT domain (residues 1287-1666) (Homo sapiens (Human), UniProt Q09472). The assay is described as follows: p300 HAT SPA assay (scintillation proximity assay, acetylation of biotinylated H3(1-21) peptide). Conditions: average of at least 2 replicate titrations. The format is biochemical. How it is done:
In a typical experiment the p300 HAT inhibitory activity of the compounds described herein was determined in accordance with the following experimental method.
The expressed protein was purified by Ni2+ affinity, followed by anion exchange chromatography. Appropriate fractions were pooled and buffer exchanged into 20 mM Hepes pH 7.5, 150 mM NaCl, and 1 mM TCEP.
35 μL of the reaction volume was transferred to a 384-well streptavidin FlashPlate (PerkinElmer) using a Bravo liquid handler (Velocity 11) and incubated for 1.5 hr at RT. […] Data were analyzed in Genedata to determine inhibitor IC50 values.
Background: Scintillation proximity formats need no separation of bound from free tracer.

Sequence of p300 HAT domain (residues 1287-1666) (Q09472 1287-1666): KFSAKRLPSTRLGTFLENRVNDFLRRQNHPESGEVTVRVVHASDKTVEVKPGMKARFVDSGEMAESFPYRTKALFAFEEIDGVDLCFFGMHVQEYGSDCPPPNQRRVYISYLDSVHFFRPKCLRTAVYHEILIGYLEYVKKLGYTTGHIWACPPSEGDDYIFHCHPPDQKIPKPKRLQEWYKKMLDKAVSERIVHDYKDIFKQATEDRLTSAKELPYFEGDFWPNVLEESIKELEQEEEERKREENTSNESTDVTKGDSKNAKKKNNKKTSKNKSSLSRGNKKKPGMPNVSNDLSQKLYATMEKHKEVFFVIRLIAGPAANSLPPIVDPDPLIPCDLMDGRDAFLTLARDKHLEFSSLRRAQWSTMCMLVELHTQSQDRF

On to `Cc1nc(NC(=O)C(NCC(C)c2ccc(C#N)cc2)c2ccccc2)ccc1-c1cnn(C)c1` (single isomer, unassigned) [39 Isomer 3], for which half-maximal inhibition (IC50) required 17.7 nM.

`Cc1nc(NC(=O)C(NCC(C)c2ccc(C#N)cc2)c2ccccc2)ccc1-c1cnn(C)c1` (single isomer, unassigned) [39 Isomer 4] came in with an IC50 of 304 nM.

Compound `N#Cc1ccc(CCNC(C(=O)Nc2ccc(N3CCN(CC(F)(F)F)CC3)cn2)c2ccccc2)cc1` (single isomer, unassigned) [40 Isomer 1] returned an IC50 of 190 nM.

`N#Cc1ccc(CCNC(C(=O)Nc2ccc(N3CCN(CC(F)(F)F)CC3)cn2)c2ccccc2)cc1` (single isomer, unassigned) [40 Isomer 2] displayed an IC50 greater than 5000 nM.

As to `Cc1cc(C#N)ccc1CCNC(C(=O)Nc1ccc(-c2cnn(C)c2)cn1)c1ccccc1` (single isomer, unassigned) [41 Isomer 1], 10.3 nM corresponded to half-maximal inhibition (IC50).

As for `Cc1cc(C#N)ccc1CCNC(C(=O)Nc1ccc(-c2cnn(C)c2)cn1)c1ccccc1` (single isomer, unassigned) [41 Isomer 2], the IC50 worked out at 1790 nM.

`N#Cc1ccc(CCNC(C(=O)Nc2ccc(C3CC3)cn2)c2ccccc2)cc1` (single isomer, unassigned) [42 Isomer 2] displayed an IC50 of 3000 nM.

Take `Cn1cc(-c2cnc(NC(=O)C(NCCc3ccc(C#N)cc3)c3ccccc3)c(Cl)c2)cn1` (single isomer, unassigned) [43 Isomer 1]: the midpoint of inhibition, the IC50, lay at 185 nM.

Take `Cn1cc(-c2cnc(NC(=O)C(NCCc3ccc(C#N)cc3)c3ccccc3)c(Cl)c2)cn1` (single isomer, unassigned) [43 Isomer 2]: the IC50 was greater than 5000 nM.

`N#Cc1ccc(CCNC(C(=O)Nc2ccc(C3CCC3)cn2)c2ccccc2)cc1` (single isomer, unassigned) [46 Isomer 1] yielded an IC50 greater than 5000 nM.

`N#Cc1ccc(CCNC(C(=O)Nc2ccc(C3CCC3)cn2)c2ccccc2)cc1` (single isomer, unassigned) [46 Isomer 2] yielded an IC50 of 486 nM.

The compound `CC(CNC(C(=O)Nc1ccc(-c2cnn(C(C)(C)C#N)c2)cn1)c1ccccc1)c1ccc(C#N)cc1` (single isomer, unassigned) [47 Isomer 1] displayed an IC50 of 448 nM.

With `CC(CNC(C(=O)Nc1ccc(-c2cnn(C(C)(C)C#N)c2)cn1)c1ccccc1)c1ccc(C#N)cc1` (single isomer, unassigned) [47 Isomer 2], it took 24.2 nM to reach half-maximal inhibition (IC50).

In turn, `CC(CNC(C(=O)Nc1ccc(-c2cnn(C(C)(C)C#N)c2)cn1)c1ccccc1)c1ccc(C#N)cc1` (single isomer, unassigned) [47 Isomer 3] came in with an IC50 greater than 2000 nM.

Consider `CC(CNC(C(=O)Nc1ccc(-c2cnn(C(C)(C)C#N)c2)cn1)c1ccccc1)c1ccc(C#N)cc1` (single isomer, unassigned) [47 Isomer 4], for which the IC50 worked out at 425 nM.

In the case of `CN1CCN(c2ccc(NC(=O)C(NCCc3ccc(C#N)cc3)c3ccccc3)nc2)CC1` (single isomer, unassigned) [49 Isomer 2], the IC50 is greater than 5000 nM.

`N#Cc1ccc(CCNC(C(=O)Nc2ccn(-c3ccccc3)n2)c2ccccc2)cc1` (single isomer, unassigned) [50 Isomer 1] had an IC50 of 279 nM.

For `N#Cc1ccc(CCNC(C(=O)Nc2ccn(-c3ccccc3)n2)c2ccccc2)cc1` (single isomer, unassigned) [50 Isomer 2], the 50% inhibitory concentration (IC50) was greater than 5000 nM.

For the compound `Cn1cc(-c2ccc(NC(=O)C(NCCc3ccc(C#N)cc3Cl)c3ccccc3)nc2)cn1` (single isomer, unassigned) [51 Isomer 2], the IC50 came to 237 nM.

The compound `CC(CNC(C(=O)Nc1ccc(-c2cnn(C3CCC3)c2)cn1)c1ccccc1)c1ccc(C#N)cc1` (single isomer, unassigned) [52 Isomer 1] yielded an IC50 of 612 nM.

`CC(CNC(C(=O)Nc1ccc(-c2cnn(C3CCC3)c2)cn1)c1ccccc1)c1ccc(C#N)cc1` (single isomer, unassigned) [52 Isomer 2] showed an IC50 greater than 2000 nM.

The compound `CC(CNC(C(=O)Nc1ccc(-c2cnn(C3CCC3)c2)cn1)c1ccccc1)c1ccc(C#N)cc1` (single isomer, unassigned) [52 Isomer 3] returned an IC50 of 31.1 nM.

Consider `CC(CNC(C(=O)Nc1ccc(-c2cnn(C3CCC3)c2)cn1)c1ccccc1)c1ccc(C#N)cc1` (single isomer, unassigned) [52 Isomer 4], for which the half-maximal inhibitory concentration (IC50) is greater than 2000 nM.

Consider `CC(CNC(C(=O)Nc1ccc(-c2cnn(C(C)(C)C)c2)cn1)c1ccccc1)c1ccc(C#N)cc1` (single isomer, unassigned) [54 Isomer 1], for which half-maximal inhibition (IC50) was put at 383 nM.

`CC(CNC(C(=O)Nc1ccc(-c2cnn(C(C)(C)C)c2)cn1)c1ccccc1)c1ccc(C#N)cc1` (single isomer, unassigned) [54 Isomer 2] yielded an IC50 of 23.9 nM.

`CC(CNC(C(=O)Nc1ccc(-c2cnn(C(C)(C)C)c2)cn1)c1ccccc1)c1ccc(C#N)cc1` (single isomer, unassigned) [54 Isomer 3] had an IC50 greater than 2000 nM.

Regarding `CC(CNC(C(=O)Nc1ccc(-c2cnn(C(C)(C)C)c2)cn1)c1ccccc1)c1ccc(C#N)cc1` (single isomer, unassigned) [54 Isomer 4], the half-inhibitory concentration (IC50) worked out at 1970 nM.

`Cn1cc(-c2ccc(NC(=O)C(NCCc3ccc(Cl)cc3)c3ccccc3)nc2)cn1` (single isomer, unassigned) [55 Isomer 2]: the IC50 was greater than 5000 nM.

Regarding `Cn1cc(-c2cnc(NC(=O)C(NCCc3ccc(C#N)cc3)c3ccccc3)cn2)cn1` (single isomer, unassigned) [56 Isomer 2], the IC50 is greater than 5000 nM.

Consider `Cn1cc(-c2ccc(NC(=O)C(NCCc3ccc(C#N)cc3)c3ccccc3)nn2)cn1` (single isomer, unassigned) [57 Isomer 1], for which the IC50 was determined as 815 nM.

Compound `Cn1cc(-c2ccc(NC(=O)C(NCCc3ccc(C#N)cc3)c3ccccc3)nn2)cn1` (single isomer, unassigned) [57 Isomer 2] displayed an IC50 greater than 5000 nM.

In turn, `Cn1cc(-c2ccc(NC(=O)C(NCCc3ccc(F)cc3)c3ccccc3)nc2)cn1` (single isomer, unassigned) [58 Isomer 2] registered a concentration for half-maximal inhibition (IC50) greater than 5000 nM.

Regarding `CC(CNC(C(=O)Nc1ccc(-n2cnc(C(C)(C)C)c2)cn1)c1ccccc1)c1ccc(C#N)cc1` (single isomer, unassigned) [59 Isomer 1], 1500 nM corresponded to half-maximal inhibition (IC50).

As to `CC(CNC(C(=O)Nc1ccc(-n2cnc(C(C)(C)C)c2)cn1)c1ccccc1)c1ccc(C#N)cc1` (single isomer, unassigned) [59 Isomer 2], the IC50 is greater than 2000 nM.

The compound `CC(CNC(C(=O)Nc1ccc(-n2cnc(C(C)(C)C)c2)cn1)c1ccccc1)c1ccc(C#N)cc1` (single isomer, unassigned) [59 Isomer 3] registered an IC50 greater than 2000 nM.

Compound `CC(CNC(C(=O)Nc1ccc(-n2cnc(C(C)(C)C)c2)cn1)c1ccccc1)c1ccc(C#N)cc1` (single isomer, unassigned) [59 Isomer 4] returned a concentration for half-maximal inhibition (IC50) of 39.3 nM.

Compound `Cc1nnc2n1CCN(c1ccc(NC(=O)C(NCCc3ccc(C#N)cc3)c3ccccc3)nc1)C2` (single isomer, unassigned) [60 Isomer 1] returned an IC50 of 32.5 nM.

In turn, `Cc1nnc2n1CCN(c1ccc(NC(=O)C(NCCc3ccc(C#N)cc3)c3ccccc3)nc1)C2` (single isomer, unassigned) [60 Isomer 2] had an IC50 greater than 2000 nM.

As to `COc1ccc(C(NCCc2ccc(C#N)cc2)C(=O)Nc2ccc(-c3cnn(C)c3)cn2)cc1` (single isomer, unassigned) [63 Isomer 1], the half-maximal inhibitory concentration (IC50) came to 86 nM.

In turn, `COc1ccc(C(NCCc2ccc(C#N)cc2)C(=O)Nc2ccc(-c3cnn(C)c3)cn2)cc1` (single isomer, unassigned) [63 Isomer 2] gave a half-maximal inhibitory concentration (IC50) greater than 2000 nM.

The compound `CCN(CC)C(=O)C1CCN(c2ccc(NC(=O)C(NCCc3ccc(C#N)cc3)c3ccccc3)nc2)CC1` (single isomer, unassigned) [64 Isomer 1] registered a 50% inhibitory concentration (IC50) greater than 2000 nM.

The compound `CCN(CC)C(=O)C1CCN(c2ccc(NC(=O)C(NCCc3ccc(C#N)cc3)c3ccccc3)nc2)CC1` (single isomer, unassigned) [64 Isomer 2] had an IC50 of 568 nM.

As for `CC1(C)CCN(c2ccc(NC(=O)C(NCCc3ccc(C#N)cc3)c3ccccc3)nc2)CC1` (single isomer, unassigned) [65 Isomer 1], the IC50 worked out at 477 nM.

For `CC1(C)CCN(c2ccc(NC(=O)C(NCCc3ccc(C#N)cc3)c3ccccc3)nc2)CC1` (single isomer, unassigned) [65 Isomer 2], the half-inhibitory concentration (IC50) is greater than 5000 nM.

The compound `COC1CCN(c2ccc(NC(=O)C(NCCc3ccc(C#N)cc3)c3ccccc3)nc2)CC1` (single isomer, unassigned) [66 Isomer 1] registered a half-inhibitory concentration (IC50) of 144 nM.

`COC1CCN(c2ccc(NC(=O)C(NCCc3ccc(C#N)cc3)c3ccccc3)nc2)CC1` (single isomer, unassigned) [66 Isomer 2]: the half-maximal inhibitory concentration (IC50) is greater than 5000 nM.

Regarding `Cn1cc(-c2ccc(NC(=O)C(NCCc3ccc(C#N)cc3)c3ccc(Cl)cc3)nc2)cn1` (single isomer, unassigned) [67 Isomer 1], the IC50 was greater than 2000 nM.

The compound `Cn1cc(-c2ccc(NC(=O)C(NCCc3ccc(C#N)cc3)c3ccc(Cl)cc3)nc2)cn1` (single isomer, unassigned) [67 Isomer 2] came in with an IC50 of 216 nM.

With `CS(=O)(=O)N1CCN(c2ccc(NC(=O)C(NCCc3ccc(C#N)cc3)c3ccccc3)nc2)CC1` (single isomer, unassigned) [68 Isomer 1], the IC50 is greater than 2000 nM.

Take `CN1CCN(c2ccc(NC(=O)C(NCCc3ccc(Cl)cc3)c3ccccc3)nc2)CC1` (single isomer, unassigned) [69 Isomer 1]: the IC50 was 35.8 nM.

`CN1CCN(c2ccc(NC(=O)C(NCCc3ccc(Cl)cc3)c3ccccc3)nc2)CC1` (single isomer, unassigned) [69 Isomer 2] returned an IC50 greater than 2000 nM.

Turning to `COc1cccc(C(NCCc2ccc(C#N)cc2)C(=O)Nc2ccc(-c3cnn(C)c3)cn2)c1` (single isomer, unassigned) [70 Isomer 1], the IC50 was greater than 2000 nM.
